Data taken from patent publication US9000186B2, “Ring-fused heterocyclic derivative” (Kyowa Hakko Kirin Co., Ltd., priority 2011, dated 2015).
Like-named read-outs stand apart in the source and are kept apart here.

Biological target: T1, human Cav3.2 T-type Ca2+ channel (Homo sapiens, UniProt O95180)
T1 construct: expressed in transfected cells; host or cells: KJMGER8 cells (Namalwa cell-derived cell line)
Test: Inhibitory effect for intracellular calcium response via Cav3.2 T-type Ca2+ channels (FLIPR Calcium 3 Assay Kit)
Assay type: cell-based

[1] = human Cav3.2-expressing KJMGER8 cells (Namalwa-derived), calcium response induced by 5 mmol/L CaCl2, normalised to 3 μmol/L mibefradil, read-out: IC50 for the human Cav3.2 T-type Ca2+ current

T1 sequence (O95180 whole entry): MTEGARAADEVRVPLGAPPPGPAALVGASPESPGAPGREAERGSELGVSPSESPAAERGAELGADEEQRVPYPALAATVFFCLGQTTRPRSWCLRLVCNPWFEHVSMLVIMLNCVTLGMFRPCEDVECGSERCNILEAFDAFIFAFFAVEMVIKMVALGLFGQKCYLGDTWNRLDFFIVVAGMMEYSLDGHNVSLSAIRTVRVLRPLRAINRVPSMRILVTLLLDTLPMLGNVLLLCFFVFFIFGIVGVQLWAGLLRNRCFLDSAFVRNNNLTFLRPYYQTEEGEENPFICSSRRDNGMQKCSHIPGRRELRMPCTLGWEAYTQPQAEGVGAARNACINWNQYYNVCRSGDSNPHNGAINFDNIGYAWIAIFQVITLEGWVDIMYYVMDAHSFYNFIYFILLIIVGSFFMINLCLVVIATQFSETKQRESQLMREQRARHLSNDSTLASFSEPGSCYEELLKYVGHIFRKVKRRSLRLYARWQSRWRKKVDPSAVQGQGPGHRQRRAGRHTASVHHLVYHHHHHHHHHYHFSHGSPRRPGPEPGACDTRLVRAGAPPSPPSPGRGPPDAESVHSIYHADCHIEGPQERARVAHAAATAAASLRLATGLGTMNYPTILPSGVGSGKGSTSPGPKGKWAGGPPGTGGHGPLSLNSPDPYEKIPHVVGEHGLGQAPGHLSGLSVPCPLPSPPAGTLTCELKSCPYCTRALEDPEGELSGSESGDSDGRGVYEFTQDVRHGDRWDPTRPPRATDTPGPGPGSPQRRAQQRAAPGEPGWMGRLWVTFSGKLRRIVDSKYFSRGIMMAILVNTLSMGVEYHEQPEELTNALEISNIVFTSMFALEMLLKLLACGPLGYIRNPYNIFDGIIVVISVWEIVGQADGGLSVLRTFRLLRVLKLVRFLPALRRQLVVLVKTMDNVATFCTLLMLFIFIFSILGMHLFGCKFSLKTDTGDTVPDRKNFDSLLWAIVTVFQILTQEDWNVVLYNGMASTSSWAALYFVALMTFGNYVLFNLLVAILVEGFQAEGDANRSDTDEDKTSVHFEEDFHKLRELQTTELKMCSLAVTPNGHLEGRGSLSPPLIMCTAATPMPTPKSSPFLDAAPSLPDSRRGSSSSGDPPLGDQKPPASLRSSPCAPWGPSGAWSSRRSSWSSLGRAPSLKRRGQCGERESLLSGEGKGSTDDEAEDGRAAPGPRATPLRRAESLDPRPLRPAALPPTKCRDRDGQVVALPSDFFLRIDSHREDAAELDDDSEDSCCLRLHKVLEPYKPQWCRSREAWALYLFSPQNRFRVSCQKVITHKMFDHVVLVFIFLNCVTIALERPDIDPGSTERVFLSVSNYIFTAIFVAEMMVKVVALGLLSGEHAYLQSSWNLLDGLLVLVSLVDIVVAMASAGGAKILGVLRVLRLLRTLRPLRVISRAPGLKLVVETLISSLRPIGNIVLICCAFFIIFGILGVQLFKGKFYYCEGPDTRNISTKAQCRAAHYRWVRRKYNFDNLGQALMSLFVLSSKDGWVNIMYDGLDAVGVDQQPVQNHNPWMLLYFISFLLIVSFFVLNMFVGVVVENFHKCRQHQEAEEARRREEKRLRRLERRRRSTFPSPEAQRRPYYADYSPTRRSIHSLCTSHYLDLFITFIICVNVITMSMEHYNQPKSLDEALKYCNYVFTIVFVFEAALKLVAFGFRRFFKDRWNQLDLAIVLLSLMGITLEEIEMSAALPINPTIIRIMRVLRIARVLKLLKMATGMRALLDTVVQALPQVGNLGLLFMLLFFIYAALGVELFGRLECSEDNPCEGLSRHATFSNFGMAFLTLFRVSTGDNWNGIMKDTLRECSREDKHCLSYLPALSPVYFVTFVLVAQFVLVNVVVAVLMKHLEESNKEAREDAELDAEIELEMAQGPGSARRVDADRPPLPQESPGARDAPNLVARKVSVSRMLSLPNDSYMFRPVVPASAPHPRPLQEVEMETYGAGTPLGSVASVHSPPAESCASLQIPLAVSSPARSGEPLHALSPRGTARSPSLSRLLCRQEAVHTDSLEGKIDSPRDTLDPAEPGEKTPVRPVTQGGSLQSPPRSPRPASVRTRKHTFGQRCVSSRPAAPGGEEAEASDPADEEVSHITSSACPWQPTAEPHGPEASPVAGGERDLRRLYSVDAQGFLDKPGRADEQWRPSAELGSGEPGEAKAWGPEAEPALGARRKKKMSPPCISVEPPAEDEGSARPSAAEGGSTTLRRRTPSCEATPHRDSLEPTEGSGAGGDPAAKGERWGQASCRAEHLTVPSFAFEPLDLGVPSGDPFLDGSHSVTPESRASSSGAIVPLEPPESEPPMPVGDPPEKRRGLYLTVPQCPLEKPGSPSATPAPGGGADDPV

Structure (SMILES) | IC50 [1] | IC50
O=C(Nc1ccccc1)c1ccn2c(S(=O)(=O)N3CC(F)(F)C3)c(C(F)(F)F)nc2c1 [Compound 146, 3-(3,3-Difluoroazetidin-1-ylsulfonyl)-N-phenyl-2-trifluoromethylimidazo[1,2-a]pyridine-7-carboxamide] | < 0.1 µM | 
Cc1c(C(=O)Nc2ccncc2)ccn2c(CC3CCCCC3)c(C(C)(C)C)nc12 [Compound 42, 2-tert-Butyl-3-cyclohexylmethyl-8-methyl-N-(pyridin-4-yl)imidazo[1,2-a]pyridine-7-carboxamide] |  | < 0.1 µM
Cc1c(I)c(C(=O)Nc2ccccc2)cc2nc(C(F)(F)F)c(CC3CCC(F)(F)CC3)n12 [Compound 125, 3-(4,4-Difluorocyclohexylmethyl)-6-iodo-5-methyl-N-phenyl-2-trifluoromethylimidazo[1,2-a]pyridine-7-carboxamide] |  | < 0.1 µM
Cc1cn2c(S(=O)(=O)N3CC4(COC4)C3)c(C(C)C)nc2cc1C(=O)Nc1ccccc1 [Compound 166, 3-(2-Oxa-6-azaspiro[3.3]heptan-6-ylsulfonyl)-2-isopropyl-6-methyl-N-phenylimidazo[1,2-a]pyridine-7-carboxamide] | < 0.1 µM | 
CS(=O)(=O)c1nc2cc(C(=O)Nc3ccccc3)ccn2c1S(=O)(=O)N1CCC(F)(F)CC1 [Compound 143, 3-(4,4-Difluoropiperidin-1-ylsulfonyl)-2-(methylsulfonyl)-N-phenylimidazo[1,2-a]pyridine-7-carboxamide] | < 0.1 µM | 
O=C(Nc1ccccc1)c1cc2nc(C(F)(F)F)c(CC3CCC(F)(F)CC3)n2cc1Cl [Compound 107, 6-Chloro-3-(4,4-difluorocyclohexylmethyl)-N-phenyl-2-trifluoromethylimidazo[1,2-a]pyridine-7-carboxamide] | < 0.1 µM | 
O=C(Nc1ccccc1)c1ccn2c(S(=O)(=O)N3CC(F)(F)C3)c(C3CC3)nc2c1 [Compound 138, 2-Cyclopropyl-3-(3,3-difluoroazetidin-1-ylsulfonyl)-N-phenylimidazo[1,2-a]pyridine-7-carboxamide] |  | < 0.1 µM
Cc1cn2c(S(=O)(=O)C3CCCCC3)c(C(C)C)nc2cc1C(=O)Nc1ccccc1 [Compound 163, 3-(Cyclohexylsulfonyl)-2-isopropyl-6-methyl-N-phenyl-imidazo[1,2-a]pyridine-7-carboxamide] | < 0.1 µM | 
CN(C)S(=O)(=O)N(C)c1ccn2c(CC3CCCCC3)c(C(C)(C)C)nc2c1 [Compound 20, N-(2-tert-Butyl-3-cyclohexylmethylimidazo[1,2-a]pyridin-7-yl)-N,N′,N′-trimethylsulfamide] |  | < 0.1 µM
COC(C)(C)c1nc2cc(C(=O)NC3CCOCC3)cc(C)n2c1CC1CCC(F)(F)CC1 [Compound 97, 3-(4,4-Difluorocyclohexylmethyl)-2-(2-methoxypropan-2-yl)-5-methyl-N-(tetrahydro-2H-pyran-4-yl)imidazo[1,2-a]pyridine-7-carboxamide] |  | < 0.1 µM
Cc1cc(C(=O)NC2CCC(=O)CC2)cc2nc(C(F)(F)F)c(CC3CCC(F)(F)CC3)n12 [Compound 71, 3-(4,4-Difluorocyclohexylmethyl)-5-methyl-N-(4-oxocyclohexyl)-2-trifluoromethylimidazo[1,2-a]pyridine-7-carboxamide] |  | < 0.1 µM
CC(C)c1nc2nc(C(=O)Nc3ccccc3)ccn2c1S(=O)(=O)N1CCC(F)(F)CC1 [Compound 171, 3-(4,4-Difluoropiperidin-1-ylsulfonyl)-2-isopropyl-N-phenylimidazo[1,2-a]pyrimidine-7-carboxamide] | < 0.1 µM | 
CC(C)c1nc2cc(C(=O)Nc3ccccc3)c(Cl)cn2c1S(=O)(=O)NC1CC(F)(F)C1 [Compound 154, 6-Chloro-3-{N-(3,3-difluorocyclobutyl)sulfamoyl}-2-isopropyl-N-phenylimidazo[1,2-a]pyridine-7-carboxamide] | < 0.1 µM | 
CC(C)c1nc2cc(C(=O)Nc3ccccc3)c(Cl)cn2c1S(=O)(=O)NC(C)(C)C [Compound 156, 3-(N-tert-Butylsulfamoyl)-6-chloro-2-isopropyl-N-phenylimidazo[1,2-a]pyridine-7-carboxamide] | < 0.1 µM | 
CCN(CC)C(=O)c1ccn2c(SC3CCCCC3)c(C(C)C)nc2c1 [Compound 12, 3-Cyclohexylthio-N,N-diethyl-2-isopropylimidazo[1,2-a]pyridine-7-carboxamide] |  | < 0.1 µM
CN(C(C)(C)C)S(=O)(=O)c1c(C(F)(F)F)nc2cc(C(=O)Nc3ccccc3)ccn12 [Compound 147, 3-(N-tert-Butyl-N-methylsulfamoyl)-N-phenyl-2-trifluoromethylimidazo[1,2-a]pyridine-7-carboxamide] |  | < 0.1 µM
Cc1cn2c(S(=O)(=O)NC(C)(C)C)c(C(C)C)nc2cc1C(=O)Nc1ccccc1 [Compound 168, 3-(N-tert-Butylsulfamoyl)-2-isopropyl-6-methyl-N-phenylimidazo[1,2-a]pyridine-7-carboxamide] |  | < 0.1 µM

Structure (SMILES) | IC50 [1] | IC50
CC(C)c1nc2cc(C(=O)Nc3ccccc3)ccn2c1S(=O)(=O)NC(C1CC1)C1CC1 [Compound 129, 3-{N-(Dicyclopropylmethyl)sulfamoyl}-2-isopropyl-N-phenylimidazo[1,2-a]pyridine-7-carboxamide] | < 0.1 µM | 
Cc1cc(-c2nc3ccccc3[nH]2)cc2nc(C(F)(F)F)c(CC3CCC(F)(F)CC3)n12 [Compound 127, 2-{3-(4,4-Difluorocyclohexylmethyl)-5-methyl-2-trifluoromethylimidazo[1,2-a]pyridin-7-yl}-1H-benzimidazole] | < 0.1 µM | 
Cc1cc(C(=O)Nc2ccccc2N)cc2nc(C(F)(F)F)c(CC3CCC(F)(F)CC3)n12 [Compound 68, N-(2-Aminophenyl)-3-(4,4-difluorocyclohexylmethyl)-5-methyl-2-trifluoromethylimidazo[1,2-a]pyridine-7-carboxamide] |  | < 0.1 µM
CC1(C)COCCC1NC(=O)c1ccn2c(CC3CCC(F)(F)CC3)c(C(F)(F)F)nc2c1 (stereo not shown) [Compound 53, 3-(4,4-Difluorocyclohexylmethyl)-N-(3,3-dimethyltetrahydro-2H-pyran-4-yl)-2-trifluoromethylimidazo[1,2-a]pyridine-7-carboxamide] |  | < 0.1 µM
O=C(NC1CCOCC1)c1ccn2c(CC3CCC(F)(F)CC3)c(C3(C(F)(F)F)CC3)nc2c1 [Compound 65, 3-(4,4-Difluorocyclohexylmethyl)-N-(tetrahydro-2H-pyran-4-yl)-2-(1-trifluoromethylcyclopropyl)imidazo[1,2-a]pyridine-7-carboxamide] |  | < 0.1 µM
CC(C)c1nc2cc(NC(=O)c3ccccc3)ccn2c1COC1CCCCC1 [Compound 28, N-(3-Cyclohexyloxymethyl-2-isopropylimidazo[1,2-a]pyridin-7-yl)benzamide] | < 0.1 µM | 
CC(C)c1nc2cc(C(=O)Nc3ccccc3)ccn2c1S(=O)(=O)N(C)c1ccccc1 [Compound 132, 2-Isopropyl-3-(N-methyl-N-phenylsulfamoyl)-N-phenylimidazo[1,2-a]pyridine-7-carboxamide] | < 0.1 µM | 
CC(C)c1nc2cc(NC(=O)C3CCCCC3)ncn2c1S(=O)(=O)N1CCC(F)(F)CC1 [Compound 175, N-{3-(4,4-Difluoropiperidin-1-ylsulfonyl)-2-isopropylimidazo[1,2-c]pyrimidin-7-yl}cyclohexanecarboxamide] | < 0.1 µM | 
O=C(NOC1CCOCC1)c1cc2nc(C(F)(F)F)c(CC3CCC(F)(F)CC3)n2cc1Cl [Compound 181, 6-Chloro-3-(4,4-difluorocyclohexylmethyl)-N-(tetrahydro-2H-pyran-4-yloxy)-2-trifluoromethylimidazo[1,2-a]pyridine-7-carboxamide] | < 0.1 µM | 
CC(C)c1nc2cc(C(=O)N3CCc4ccccc43)ccn2c1S(=O)(=O)N1CCCCC1 [Compound 136, Indolin-1-yl{2-isopropyl-3-(piperidin-1-ylsulfonyl)imidazo[1,2-a]pyridin-7-yl}methanone] |  | < 0.1 µM
Cc1cc(C(=O)NCC2(C)COC2)cc2nc(C(F)(F)F)c(CC3CCC(F)(F)CC3)n12 [Compound 95, 3-(4,4-Difluorocyclohexylmethyl)-5-methyl-N-{(3-methyloxetan-3-yl)methyl}-2-trifluoromethylimidazo[1,2-a]pyridine-7-carboxamide] |  | < 0.1 µM
CC(C)c1nc2nc(C(=O)NC3CCCCC3)ccn2c1S(=O)(=O)N1CCC(F)(F)CC1 [Compound 172, N-Cyclohexyl-3-(4,4-difluoropiperidin-1-ylsulfonyl)-2-isopropylimidazo[1,2-a]pyrimidine-7-carboxamide] | < 0.1 µM | 
CC(C)(C)NS(=O)(=O)c1c(C(C)(C)C)nc2cc(C(=O)NC3CCOCC3)c(Cl)cn12 [Compound 162, 2-tert-Butyl-3-(N-tert-butylsulfamoyl)-6-chloro-N-(tetrahydro-2H-pyran-4-yl)imidazo[1,2-a]pyridine-7-carboxamide] |  | < 0.1 µM
Cc1cc(C(=O)NCC2(F)CCOCC2)cc2nc(C(F)(F)F)c(CC3CCC(F)(F)CC3)n12 [Compound 87, 3-(4,4-Difluorocyclohexylmethyl)-N-{(4-fluorotetrahydro-2H-pyran-4-yl)methyl}-5-methyl-2-trifluoromethylimidazo[1,2-a]pyridine-7-carboxamide] |  | < 0.1 µM
CC(C)c1nc2cc(C(=O)NOCc3ccccc3)c(Cl)cn2c1S(=O)(=O)N1CC(F)(F)C1 [Compound 152, N-Benzyloxy-6-chloro-3-(3,3-difluoroazetidin-1-ylsulfonyl)-2-isopropylimidazo[1,2-a]pyridine-7-carboxamide] | < 0.1 µM | 
O=C(NC1CC=CCC1)c1ccn2c(CC3CCC(F)(F)CC3)c(C(F)(F)F)nc2c1 (stereo not shown) [Compound 180, N-(Cyclohex-3-enyl)-3-(4,4-difluorocyclohexylmethyl)-2-trifluoromethylimidazo[1,2-a]pyridine-7-carboxamide] |  | < 0.1 µM
Cc1cc(C(=O)NOC2CCOCC2)cc2nc(C(F)(F)F)c(CC3CCC(F)(F)CC3)n12 [Compound 90, 3-(4,4-Difluorocyclohexylmethyl)-5-methyl-N-(tetrahydro-2H-pyran-4-yloxy)-2-trifluoromethylimidazo[1,2-a]pyridine-7-carboxamide] |  | < 0.1 µM
